From patent US12478066B2, “Pesticidal mixtures” (BASF SE, priority 2019, dated 2025)

Assays:
Type in all cases: cell-based
[1] = system: Leptosphaeria nodorum; experiment: Microtest: activity against wheat leaf spots caused by Leptosphaeria nodorum (LEPTNO); conditions: 7 days after inoculation
Experimental: (§1) The active compounds were formulated separately as a stock solution having a concentration of 10000 ppm in dimethyl sulfoxide.
(§2) The stock solutions were mixed according to the ratio, pipetted onto a micro titer plate (MTP) and diluted with water to the stated concentrations. A spore suspension of Leptosphaeria nodorum in an aqueous biomalt or yeast-bactopeptone-glycerine or DOB solution was then added. The plates were placed in a water vapor-saturated chamber at a temperature of 18° C. Using an absorption photometer, the MTPs were measured at 405 nm 7 days after the inoculation.
(§3) The measured parameters were compared to the growth of the active compound-free control variant (100%) and the fungus-free blank value to determine the relative growth in % of the pathogens in the respective active compounds.
(§4) These percentages were converted into efficacies.
(§5) An efficacy of 0 means that the growth level of the pathogens corresponds to that of the untreated control; an efficacy of 100 means that the pathogens were not growing.
(§6) The expected efficacies of active compound mixtures were determined using Colby's formula [R. S. Colby, “Calculating synergistic and antagonistic responses of herbicide combinations”, Weeds 15, 20-22 (1967)] and compared with the observed efficacies.

[2] = system: Rhynchosporium secalis; experiment: Microtest: activity against Rhynchosporium secalis (RHYNSE); conditions: 7 days after inoculation
Experimental: as §1
as §2, with “Rhynchosporium secalis” for “Leptosphaeria nodorum”
as §3, §4, §5, §6

[3] = system: Qoi resistant isolate of Septoria tritici; experiment: Microtest: activity against leaf blotch on wheat caused by Septoria tritici (SEPTTR), Qoi resistant isolate; conditions: 7 days after inoculation
Experimental: as §1
as §2, with “a Qoi resistant isolate of Septoria tritici” for “Leptosphaeria nodorum”
as §3, §4, §5, §6

[4] = system: Microdochium nivale; experiment: Microtest: activity against Microdochium nivale (MONGNI); conditions: 7 days after inoculation
Experimental: as §1
as §2, with “Microdochium nivale” for “Leptosphaeria nodorum”
as §3, §4, §5, §6

[5] = system: Qoi resistant isolate of Pyrenophora teres; experiment: Microtiter test: activity against net blotch Pyrenophora teres on barley (PYRNTE), Qoi resistant isolate; conditions: 0.063 ppm, 7 days after inoculation
Experimental: as §1
as §2, with “a Qoi resistant isolate of Pyrenophora teres” for “Leptosphaeria nodorum”
as §3, §4, §5, §6

Row | SMILES | Observed efficacy ([1]; 0.016 ppm) | Observed efficacy ([2]; 0.016 ppm) | Observed efficacy ([3]; 0.004 ppm) | Observed efficacy ([3]; 0.016 ppm) | Observed efficacy ([3]; 0.063 ppm) | Observed efficacy ([4]; 0.004 ppm) | Observed efficacy ([4]; 0.016 ppm) | Observed efficacy [5] | Observed efficacy ([1]; 0.004 ppm) | Observed efficacy ([2]; 0.063 ppm) | Observed efficacy ([4]; 0.063 ppm)
1 | Cc1cccc(-n2nnn(C)c2=O)c1COc1ccn(-c2ccc(Cl)cc2)n1 [Metyltetraprol, 1-[2-[[1-(4-chlorophenyl)pyrazol-3-yl]oxymethyl]-3-methyl-phenyl]-4-methyl-tetrazol-5-one] | 49 | 14 | 1 | 0 | 1 | 1 | 32 | 11 | – | – | –
2 | COc1ccnc(C(=O)N[C@@H](C)C(=O)O[C@@H](C)C(c2ccc(F)cc2)c2ccc(F)cc2)c1OC(C)=O [Florylpicoxamid, [(1S)-2,2-bis(4-fluorophenyl)-1-methyl-ethyl] (2S)-2-[(3-acetoxy-4-methoxy-pyridine-2-carbonyl)amino]propanoate] | – | – | – | 0 | 12 | 3 | 18 | 9 | 13 | 55 | 44
